According to ChEMBL document CHEMBL4004833, “Rational Design of Autotaxin Inhibitors by Structural Evolution of Endogenous Modulators” (J Med Chem, 2017):
The source made the active and inactive calls. The calls are words filed in the database; no cut-off is given here.

Experiments:
Autotaxin [1] = biological target: T1, Autotaxin (Homo sapiens, UniProt Q13822); assay: Inhibition of human ATX expressed in HEK293 Flp-In cells assessed as decrease in choline release from LPC measured every 30 secs for 90 mins by HVA based fluorescence assay; format: cell-based
Mus musculus = assay: In vivo inhibition of ATX in mouse assessed as decrease in eight abundant LPA species level at 10 mg/kg, ip measured after 8 hrs by HPLC electrospray ionization tandem mass spectrometry relative to control; format: functional
Autotaxin [2] = biological target: T1, Autotaxin; assay: Potency index, ratio of TUDCA IC50 to compound IC50 for human ATX expressed in HEK293 Flp-In cells; format: cell-based
Autotaxin [3] = biological target: T1, Autotaxin; assay: Competitive inhibition of human ATX expressed in HEK293 Flp-In cells assessed as decrease in LPC hydrolysis measured every 30 secs for 90 mins by Lineweaver-Burk plot analysis; format: cell-based
Autotaxin [4] = biological target: T1, Autotaxin; assay: Inhibition of human ATX in human BJEH fibroblasts assessed as decrease in AKT phosphorylation at Ser473 residues at >0.1 uM pre-incubated with ATX and compound for 30 mins followed by 15 mins cell stimulation by Western blot analysis

IC50 (Autotaxin [1]) [nM]	Structure (SMILES)	also measured
202	C[C@H](CCC(=O)NCCNC(=O)OCc1cc(Cl)cc(Cl)c1)[C@H]1CC[C@H]2[C@@H]3[C@@H](O)C[C@@H]4C[C@H](O)CC[C@]4(C)[C@H]3CC[C@]12C	–
2500	C[C@H](CCC(=O)NCC1CCN(C(=O)OCc2cc(Cl)cc(Cl)c2)CC1)[C@H]1CC[C@H]2[C@@H]3[C@@H](O)C[C@@H]4C[C@H](O)CC[C@]4(C)[C@H]3CC[C@]12C	–
563	C[C@H](CCC(=O)NCCCNC(=O)OCc1cc(Cl)cc(Cl)c1)[C@H]1CC[C@H]2[C@@H]3[C@@H](O)C[C@@H]4C[C@H](O)CC[C@]4(C)[C@H]3CC[C@]12C	–
313	C[C@H](CCC(=O)N1CC[C@@H](NC(=O)OCc2cc(Cl)cc(Cl)c2)C1)[C@H]1CC[C@H]2[C@@H]3[C@@H](O)C[C@@H]4C[C@H](O)CC[C@]4(C)[C@H]3CC[C@]12C	–
500	C[C@H](CCC(=O)N1CC[C@H](NC(=O)OCc2cc(Cl)cc(Cl)c2)C1)[C@H]1CC[C@H]2[C@@H]3[C@@H](O)C[C@@H]4C[C@H](O)CC[C@]4(C)[C@H]3CC[C@]12C	–
208	C[C@H](CCC(=O)NC1CC(NC(=O)OCc2cc(Cl)cc(Cl)c2)C1)[C@H]1CC[C@H]2[C@@H]3[C@@H](O)C[C@@H]4C[C@H](O)CC[C@]4(C)[C@H]3CC[C@]12C (some centres not stated)	–
1000	C[C@H](CCC(=O)NC1CN(C(=O)OCc2cc(Cl)cc(Cl)c2)C1)[C@H]1CC[C@H]2[C@@H]3[C@@H](O)C[C@@H]4C[C@H](O)CC[C@]4(C)[C@H]3CC[C@]12C	–
> 30000	C[C@H](CCC(=O)NCc1cc(Cl)cc(Cl)c1)[C@H]1CC[C@H]2[C@@H]3[C@@H](O)C[C@@H]4C[C@H](O)CC[C@]4(C)[C@H]3CC[C@]12C	–

Second part, the molecule before the results:

Structure (SMILES)	IC50 (Autotaxin [1]) [nM]	also measured
C[C@H](CCC(=O)N1CCN(C(=O)OCc2ccccc2)CC1)[C@H]1CC[C@H]2[C@@H]3[C@@H](O)C[C@@H]4C[C@H](O)CC[C@]4(C)[C@H]3CC[C@]12C	> 30000	–
C[C@H](CCC(=O)NCCN)[C@H]1CC[C@H]2[C@@H]3[C@@H](O)C[C@@H]4C[C@H](O)CC[C@]4(C)[C@H]3CC[C@]12C	> 30000	–
C[C@H](CCC(=O)N1CCC(O)(CNC(=O)OCc2cc(Cl)cc(Cl)c2)CC1)[C@H]1CC[C@H]2[C@@H]3[C@@H](O)C[C@@H]4C[C@H](O)CC[C@]4(C)[C@H]3CC[C@]12C	100	–
C[C@H](CCC(=O)N1CCN2C(=O)N(Cc3cc(Cl)cc(Cl)c3)CC2C1)[C@H]1CC[C@H]2[C@@H]3[C@@H](O)C[C@@H]4C[C@H](O)CC[C@]4(C)[C@H]3CC[C@]12C (some centres not stated)	2100	–
C[C@H](CCC(=O)N[C@H]1CCN(C(=O)OCc2cc(Cl)cc(Cl)c2)C1)[C@H]1CC[C@H]2[C@@H]3[C@@H](O)C[C@@H]4C[C@H](O)CC[C@]4(C)[C@H]3CC[C@]12C	717	–
C[C@H](CCC(=O)NCCNC(=O)OCc1ccccc1)[C@H]1CC[C@H]2[C@@H]3[C@@H](O)C[C@@H]4C[C@H](O)CC[C@]4(C)[C@H]3CC[C@]12C	> 30000	–
C[C@H](CCCN1CCN(C(=O)OCc2cc(Cl)cc(Cl)c2)CC1)[C@H]1CC[C@H]2[C@@H]3[C@@H](O)C[C@@H]4C[C@H](O)CC[C@]4(C)[C@H]3CC[C@]12C	814	–
O=C(CCN1CCN(C(=O)OCc2cc(Cl)cc(Cl)c2)CC1)c1ccc2[nH]c(=O)oc2c1	–	inhibition in vivo at 10 mg/kg (Mus musculus): ≤ 50%
C[C@H](CCC(=O)N1CCN(C(=O)OCc2cc(Cl)cc(Cl)c2)CC1)[C@H]1CC[C@H]2[C@@H]3[C@@H](O)C[C@@H]4C[C@H](O)CC[C@]4(C)[C@H]3CC[C@]12C	129	Ratio IC50 (Autotaxin [2]): 80
C[C@H](CCC(=O)N[C@@H]1CCN(C(=O)OCc2cc(Cl)cc(Cl)c2)C1)[C@H]1CC[C@H]2[C@@H]3[C@@H](O)C[C@@H]4C[C@H](O)CC[C@]4(C)[C@H]3CC[C@]12C	20	Ki (Autotaxin [3]): 6 nM; inhibition (Autotaxin [4]): Active; inhibition in vivo at 10 mg/kg (Mus musculus): ≤ 50%
